Key:
[1] = test system: patients with treatment-resistant major depressive disorder (TRD); test: Phase 1/2 clinical trial of inhaled 5-MeO-DMT in TRD: safety and tolerability
Method: This trial was designed in two parts. Part A was an open-label, single-arm, single-dose Phase 1 trial with two dose levels (12 mg (n=4) and 18 mg (n=4)). […] The primary endpoint of Part B was to assess the effects on the severity of depression, as assessed by the proportion of patients in remission on day seven after dosing, defined as a MADRS total score of less than or equal to 10.

[2] = test system: Escherichia coli strain WP2 uvrA pKM101; test: Bacterial mutation test, Escherichia coli; format: cell-based; details: up to 5000 μg/plate, absence and presence of rat liver S-9
Method: (§1) These conditions included treatments at concentrations up to 5000 μg/plate (the maximum recommended concentration according to current regulatory guidelines), in the absence and in the presence of a rat liver metabolic activation system (S-9).

[3] = Pharmacokinetics after single inhaled dose of 5-MeO-DMT (LC-MS/MS); format: in vivo, human
Method: Blood samples were obtained at 1; 2; 4; 7; 10; 15; 20; 30; 45 min and 1; 1.5; 2; 3; 4 hours after administration.
PK parameters were generated by algebraic analysis of the concentration versus time plots for each individual. The analysis was carried out using the software Phoenix WinNonlin 6.3.

[4] = test system: patients with treatment-resistant major depressive disorder (TRD); test: Phase 1/2 clinical trial of inhaled 5-MeO-DMT in TRD: MADRS; format: in vivo, human; details: for mean MADRS change from baseline at day seven / mean MADRS change from baseline at day seven, percent: n=4
From the text: Patients were assigned to different groups.
This trial was designed in two parts.

[5] = test system: patient with postpartum depression (PPD); test: Clinical trial of inhaled 5-MeO-DMT (IDR, 6 mg then 12 mg) in postpartum depression: MADRS; format: in vivo, human; details: for Total MADRS score: baseline 29
From the text: The patient completed all planned visit days.

[6] = test system: Salmonella typhimurium strains TA98, TA100, TA1535 and TA1537; test: Bacterial mutation test, Salmonella typhimurium; format: cell-based; details: up to 5000 μg/plate, absence and presence of rat liver S-9
Method: as §1

[7] = 12 mg n=4 sum, 2 h after dose vs baseline
[8] = 12 mg n=4 sum, 2 h after dose, baseline 16
[9] = 12 mg n=4 sum, Day 1, baseline 16
[10] = 12 mg n=4 sum, Day 1 vs baseline
[11] = 12 mg n=4 sum, Day 7, baseline 16
[12] = 12 mg n=4 sum, Day 7 vs baseline
[13] = IDR n=8 sum, 2 h after last dose vs baseline

## COc1ccc2[nH]cc(CCN(C)C)c2c1 [5-MeO-DMT]
[1]; Part A and Part B
  changes in safety laboratory analyses, vital signs, psychiatric safety assessments or measures of cognitive function: No clinically significant changes
[1]; Part A, 12 mg and 18 mg groups
  severity and outcome of ADRs: mild and resolved spontaneously
[1]; Part A, 12 mg single dose, n=4
  patients experiencing at least one ADR: 3 of 4
[1]; Part A, 18 mg single dose, n=4
  patients experiencing at least one ADR: 3 of 4
[1]; Part B, IDR
  SAEs: No SAEs were reported
  outcome of ADRs: All ADRs resolved spontaneously
[1]; Part B, IDR, 7 of 8 patients
  patients experiencing at least one ADR: 87.5%
[2]
  induction of mutation: did not induce mutation
[3]; 3 hours after inhalation, whole dose range
  detectability in plasma: no longer detectable
[3]; compared with single doses
  pharmacokinetic measurements under uptitration dosing schemes: Substantially similar results were obtained
[3]; repeat within 1 to 4 hours
  accumulation upon repeated administration: No accumulation is observed
[4]; [7]
  MADRS Concentration Difficulties improvement: 9
  MADRS Inability to Feel improvement: 7
  MADRS Inner Tension improvement: 11
  MADRS Lassitude improvement: 6
  MADRS Pessimistic Thoughts improvement: 8
  MADRS Pessimistic Thoughts percentage improvement: 50.00%
  MADRS Suicidal Thoughts improvement: 5
[4]; 12 mg n=4 sum, 2 h after dose, baseline 8
  MADRS Suicidal Thoughts score: 3
[4]; 12 mg n=4 sum, 2 h after dose, baseline 13
  MADRS Inner Tension score: 2
[4]; [8]
  MADRS Concentration Difficulties score: 7
  MADRS Inability to Feel score: 9
  MADRS Lassitude score: 10
  MADRS Pessimistic Thoughts score: 8
[4]; 12 mg n=4 sum, Day 1, baseline 8
  MADRS Suicidal Thoughts score: 5
[4]; 12 mg n=4 sum, Day 1, baseline 12
  MADRS Reduced Sleep score: 10
[4]; 12 mg n=4 sum, Day 1, baseline 13
  MADRS Inner Tension score: 3
[4]; [9]
  MADRS Concentration Difficulties score: 2
  MADRS Inability to Feel score: 1
  MADRS Pessimistic Thoughts score: 7
[4]; [10]
  MADRS Concentration Difficulties improvement: 14
  MADRS Inability to Feel improvement: 15
  MADRS Inner Tension improvement: 10
  MADRS Lassitude improvement: 16
  MADRS Pessimistic Thoughts improvement: 9
  MADRS Reduced Sleep improvement: 2
  MADRS Suicidal Thoughts improvement: 3
[4]; 12 mg n=4 sum, Day 7, baseline 8
  MADRS Suicidal Thoughts score: 7
[4]; 12 mg n=4 sum, Day 7, baseline 12
  MADRS Reduced Sleep score: 6
[4]; 12 mg n=4 sum, Day 7, baseline 13
  MADRS Inner Tension score: 5
[4]; [11]
  MADRS Concentration Difficulties score: 3
  MADRS Inability to Feel score: 1
  MADRS Lassitude score: 3
  MADRS Pessimistic Thoughts score: 8
[4]; [12]
  MADRS Concentration Difficulties improvement: 13
  MADRS Inability to Feel improvement: 15
  MADRS Inner Tension improvement: 8
  MADRS Lassitude improvement: 13
  MADRS Pessimistic Thoughts improvement: 8
  MADRS Pessimistic Thoughts percentage improvement: 50.00%
  MADRS Reduced Sleep improvement: 6
  MADRS Reduced Sleep percentage improvement: 50.00%
  MADRS Suicidal Thoughts improvement: 1
[4]; [13]
  MADRS Concentration Difficulties improvement: 19
  MADRS Inability to Feel improvement: 24
  MADRS Inner Tension improvement: 15
  MADRS Lassitude improvement: 17
  MADRS Pessimistic Thoughts improvement: 21
  MADRS Pessimistic Thoughts percentage improvement: 75.00%
  MADRS Suicidal Thoughts improvement: 8
[4]; IDR n=8 sum, 2 h after last dose, baseline 11
  MADRS Suicidal Thoughts score: 3
[4]; IDR n=8 sum, 2 h after last dose, baseline 26
  MADRS Inner Tension score: 11
[4]; IDR n=8 sum, 2 h after last dose, baseline 27
  MADRS Lassitude score: 10
[4]; IDR n=8 sum, 2 h after last dose, baseline 28
  MADRS Pessimistic Thoughts score: 7
[4]; IDR n=8 sum, 2 h after last dose, baseline 30
  MADRS Concentration Difficulties score: 11
[4]; IDR n=8 sum, 2 h after last dose, baseline 36
  MADRS Inability to Feel score: 12
[4]; IDR n=8 sum, Day 1, baseline 11
  MADRS Suicidal Thoughts score: 1
[4]; IDR n=8 sum, Day 1, baseline 25
  MADRS Reduced Sleep score: 12
[4]; IDR n=8 sum, Day 1, baseline 26
  MADRS Inner Tension score: 6
[4]; IDR n=8 sum, Day 1, baseline 27
  MADRS Lassitude score: 5
[4]; IDR n=8 sum, Day 1, baseline 28
  MADRS Pessimistic Thoughts score: 4
[4]; IDR n=8 sum, Day 1, baseline 30
  MADRS Concentration Difficulties score: 1
[4]; IDR n=8 sum, Day 1, baseline 36
  MADRS Inability to Feel score: 2
[4]; IDR n=8 sum, Day 1 vs baseline
  MADRS Concentration Difficulties improvement: 29
  MADRS Inability to Feel improvement: 34
  MADRS Inner Tension improvement: 20
  MADRS Lassitude improvement: 22
  MADRS Pessimistic Thoughts improvement: 24
  MADRS Reduced Sleep improvement: 13
  MADRS Reduced Sleep percentage improvement: 52.00%
  MADRS Suicidal Thoughts improvement: 10
[4]; IDR n=8 sum, Day 7, baseline 11
  MADRS Suicidal Thoughts score: 3
[4]; IDR n=8 sum, Day 7, baseline 25
  MADRS Reduced Sleep score: 9
[4]; IDR n=8 sum, Day 7, baseline 26
  MADRS Inner Tension score: 12
[4]; IDR n=8 sum, Day 7, baseline 27
  MADRS Lassitude score: 3
[4]; IDR n=8 sum, Day 7, baseline 28
  MADRS Pessimistic Thoughts score: 3
[4]; IDR n=8 sum, Day 7, baseline 30
  MADRS Concentration Difficulties score: 9
[4]; IDR n=8 sum, Day 7, baseline 36
  MADRS Inability to Feel score: 6
[4]; IDR n=8 sum, Day 7 vs baseline
  MADRS Concentration Difficulties improvement: 21
  MADRS Inability to Feel improvement: 30
  MADRS Inner Tension improvement: 14
  MADRS Lassitude improvement: 24
  MADRS Pessimistic Thoughts improvement: 25
  MADRS Reduced Sleep improvement: 16
  MADRS Reduced Sleep percentage improvement: 64.00%
  MADRS Suicidal Thoughts improvement: 8
[4]; Part A, 12 mg
  mean MADRS change from baseline at day seven: −21.0
  mean MADRS change from baseline at day seven, percent: −65%
[4]; Part A, 12 mg, two of four patients
  patients with MADRS remission (total score ≤10) on day seven: 50%
[4]; Part A, 18 mg
  mean MADRS change from baseline at day seven: −12.8
  mean MADRS change from baseline at day seven, percent: −41%
[4]; Part A, 18 mg, one further patient of four
  further patients with MADRS clinical response on day seven: 25%
[4]; Part A, 18 mg, one of four patients
  patients with MADRS remission (total score ≤10) on day seven: 25%
[4]; Part B, IDR, seven of eight patients, p<0.0001
  patients with MADRS remission (total score ≤10) on day seven: 87.5%
[5]; PPD n=1
  MADRS response (at least 50% improvement) and MADRS remission (total score ≤10) criteria: fulfilled standard criteria
  time to clinical response after administration: ≤ 2 h
[5]; PPD n=1, IDR
  time to clinical remission after administration: ≤ 2 h
[5]; PPD n=1, 2 hr vs baseline
  Total MADRS improvement: 24
[5]; PPD n=1, 2 hr
  Total MADRS score: 5
[5]; PPD n=1, Day 1, baseline 3
  MADRS Lassitude score: 0
[5]; PPD n=1, Day 1
  Total MADRS score: 0
[5]; PPD n=1, Day 1 vs baseline
  Total MADRS improvement: 29
[5]; PPD n=1, Day 7
  Total MADRS score: 1
[5]; PPD n=1, Day 7 vs baseline
  Total MADRS improvement: 28
[5]; PPD n=1, single treatment day
  durability of clinical response: sustained over the 7-day follow-up period
[6]
  induction of mutation: did not induce mutation

Source: patent US20250205256A1 (GH RESEARCH IRELAND LIMITED, priority 2022, published 2025)
